Source: ChEMBL document CHEMBL5241135, “Activity of N-phenylbenzamide analogs against the neglected disease pathogen, Schistosoma mansoni” (Bioorg Med Chem Lett, 2023)
Active and inactive are the calls of the source. The rule behind the calls is not given here.

Key:
Schistosoma mansoni [1] = assay: Antischistosomal activity against adult stage of Schistosoma mansoni assessed as uncoordinated and slowed motility at 5 uM measured after 1 hr; format: functional, organism-based
Schistosoma mansoni [2] = assay: Antischistosomal activity against adult stage of Schistosoma mansoni assessed as degenerative and lethal changes at 5 uM measured after 1 hr; format: functional, organism-based
HEK293 = assay: Cytotoxicity against human HEK293 cells measured after 48 hrs; format: toxicity, cell-based; conditions: hek293, 48 h
Schistosoma mansoni [3] = assay: Antischistosomal activity against adult stage of Schistosoma mansoni assessed as uncoordinated and slowed motility at 5 uM measured after 5 hrs; format: functional, organism-based
Schistosoma mansoni [4] = assay: Antischistosomal activity against adult stage of Schistosoma mansoni assessed as uncoordinated and slowed motility at 5 uM measured after 24 hrs; format: functional, organism-based
Schistosoma mansoni [5] = assay: Antischistosomal activity against adult stage of Schistosoma mansoni assessed as uncoordinated and slowed motility at 5 uM measured after 48 hrs; format: functional, organism-based
Schistosoma mansoni [6] = assay: Antischistosomal activity against adult stage of Schistosoma mansoni assessed as degenerative and lethal changes at 5 uM measured after 5 hrs; format: functional, organism-based
Schistosoma mansoni [7] = assay: Antischistosomal activity against adult stage of Schistosoma mansoni assessed as degenerative and lethal changes at 5 uM measured after 24 hrs; format: functional, organism-based
Schistosoma mansoni [8] = assay: Antischistosomal activity against adult stage of Schistosoma mansoni assessed as degenerative and lethal changes at 5 uM measured after 48 hrs; format: functional, organism-based
Schistosoma mansoni [9] = assay: Antischistosomal activity against adult stage of Schistosoma mansoni assessed as reduction in worm motility measured after 24 hrs; format: functional, organism-based
[10] = Selectivity index, ratio of CC50 for human HEK293 cells to EC50 for antischistosomal activity against adult stage of Schistosoma mansoni; format: toxicity; conditions: read-out: Ratio CC50/EC50

Row | EC50 (Schistosoma mansoni [9]) | SMILES | Activity (Schistosoma mansoni [1]) | Activity (Schistosoma mansoni [2]) | CC50 (HEK293) | Activity (Schistosoma mansoni [3]) | Activity (Schistosoma mansoni [4]) | Activity (Schistosoma mansoni [5]) | Activity (Schistosoma mansoni [6]) | Activity (Schistosoma mansoni [7]) | Activity (Schistosoma mansoni [8]) | selectivity ratio [10]
1 |  | COc1ccc(NC(=O)c2cc(Cl)ccc2O)cc1OC | inactive | inactive | > 20 µM |  |  |  |  |  |  | 
2 |  | N#Cc1ccc(C(=O)Nc2cccc(C(F)(F)F)c2)cc1 | inactive | inactive | > 20 µM | inactive | inactive | inactive | inactive | inactive | inactive | 
3 | 3.7 µM | Cc1ccc(NC(=O)c2ccc(C(F)(F)F)cc2)cc1C | Active |  | > 20 µM | Active |  |  |  | Active | Active | > 5.4
4 |  | N#Cc1ccc(C(=O)Nc2ccccc2)cc1 | inactive | inactive | > 20 µM | inactive | inactive | inactive | inactive | inactive | inactive | 
5 |  | COc1ccc(NC(=O)c2ccccc2)cc1OC | inactive | inactive | > 20 µM | inactive | inactive | inactive | inactive | inactive | inactive | 
6 |  | O=C(Nc1ccccc1)c1ccc(C(F)(F)F)cc1 | inactive | inactive | > 20 µM | inactive | inactive | inactive | inactive | inactive | inactive | 
7 |  | Cc1ccc(NC(=O)c2ccc(F)cc2)cc1C | inactive | inactive | > 20 µM | inactive | inactive | inactive | inactive | inactive | inactive | 
8 |  | O=C(Nc1cccc(C(F)(F)F)c1)c1ccc(F)cc1 |  |  | > 20 µM | inactive | inactive | inactive | inactive | inactive | inactive | 
9 |  | Cc1ccc(NC(=O)c2ccccc2)cc1C | inactive | inactive | > 20 µM | inactive | inactive | inactive | inactive | inactive | inactive | 
10 |  | COc1ccc(NC(=O)c2ccc(C(F)(F)F)cc2)cc1OC | inactive | inactive | > 20 µM | inactive | inactive | inactive | inactive | inactive | inactive | 
11 |  | O=C(Nc1ccccc1)c1ccc(F)cc1 | inactive | inactive | > 20 µM | inactive | inactive | inactive | inactive | inactive | inactive | 
12 |  | COc1ccc(NC(=O)c2ccc(F)cc2)cc1OC |  |  | > 20 µM | inactive | inactive | inactive | inactive | inactive | inactive | 
13 | 0.08 µM | O=C(Nc1ccc(Cl)c(Cl)c1)c1ccc(C(F)(F)F)cc1 |  | Active |  |  |  |  | Active | Active | Active | 123
14 |  | O=C(Nc1ccc(F)c(F)c1)c1ccccc1 | inactive | inactive | > 20 µM | inactive | inactive | inactive | inactive | inactive | inactive | 
15 |  | O=C(Nc1ccc(Cl)c(Cl)c1)c1ccccc1 | Active |  | > 20 µM | Active | Active | Active |  |  |  | 
16 |  | O=C(Nc1ccc(Cl)nn1)c1cccc(F)c1 | inactive | inactive | > 20 µM | inactive | inactive | inactive | inactive | inactive | inactive | 
17 |  | O=C(Nc1cccc(C(F)(F)F)c1)c1ccccc1 |  |  | > 20 µM |  | inactive | inactive |  | inactive | inactive | 
18 |  | Cc1ccc(NC(=O)c2ccc(C#N)cc2)cc1C | inactive | inactive | > 20 µM | inactive | inactive | inactive | inactive | inactive | inactive | 
19 | 1.1 µM | O=C(Nc1cccc(C(F)(F)F)c1)c1ccc(C(F)(F)F)cc1 |  | Active |  |  |  |  | Active | Active | Active | 10.1
20 |  | COc1ccc(NC(=O)c2ccc(C#N)cc2)cc1OC | inactive | inactive | > 20 µM | inactive | inactive | inactive | inactive | inactive | inactive | 
21 |  | O=C(Nc1ccc(F)c(F)c1)c1ccc(F)cc1 |  |  | > 20 µM |  | inactive | inactive |  | inactive | inactive | 
22 |  | O=C(Nc1ccc(Cl)c(Cl)c1)c1ccc(F)cc1 | Active |  | > 20 µM | Active | Active | Active |  |  |  | 
23 | 3.8 µM | O=C(Nc1ccc(F)c(F)c1)c1ccc(C(F)(F)F)cc1 | Active |  | 14.6 µM | Active | Active |  |  |  | Active | 3.84
24 | 1.25 µM | O=C(Nc1ccc(C(F)(F)F)cc1)c1ccc(C(F)(F)F)cc1 |  |  | > 20 µM |  | Active |  |  |  | Active | > 16
25 |  | N#Cc1ccc(C(=O)Nc2ccc(F)c(F)c2)cc1 | inactive | inactive | > 20 µM | inactive | inactive | inactive | inactive | inactive | inactive | 
